Patent publication US9682940B2, “Indazole derivatives useful as CB-1 inverse agonists” (Janssen Pharmaceutica NV, priority 2015, dated 2017)

Assays:
[1] = target: Human CB1R (Cannabanoid receptor 1) (Homo sapiens (Human), UniProt P21554); experiment: CB-1 in vitro cAMP (HTRF) assay in HEK-293 cells; format: cell-based; conditions: HEK-293 cells stably transfected with human CB1R, 250 nM Forskolin, mean where tested more than once, read-out: CB-1 (HEK_cAMP) EC50
Method in brief: (§1)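 HEK-293 cells stably expressing human CB1 or CB2 plated overnight, then tested in HBSS/5 mM HEPES/0.1% BSA with 0.5 mM IBMX and forskolin (1.5 μM working dilution). Intracellular cAMP quantified by competitive HTRF immunoassay (d2-cAMP, cryptate anti-cAMP) against a cAMP standard curve; compounds as 1/3 serial dilutions from 10 mM DMSO stocks.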

[2] = target: Human CB2R (Cannabanoid receptor 2) (Homo sapiens (Human), UniProt P34972); experiment: CB-2 in vitro cAMP (HTRF) assay in HEK-293 cells; format: cell-based; conditions: HEK-293 cells stably transfected with human CB2R, 250 nM Forskolin, mean where tested more than once, read-out: CB-2 (HEK_cAMP) EC50
Method in brief: as §1

Human CB2R (Cannabanoid receptor 2), sequence (P34972 whole entry): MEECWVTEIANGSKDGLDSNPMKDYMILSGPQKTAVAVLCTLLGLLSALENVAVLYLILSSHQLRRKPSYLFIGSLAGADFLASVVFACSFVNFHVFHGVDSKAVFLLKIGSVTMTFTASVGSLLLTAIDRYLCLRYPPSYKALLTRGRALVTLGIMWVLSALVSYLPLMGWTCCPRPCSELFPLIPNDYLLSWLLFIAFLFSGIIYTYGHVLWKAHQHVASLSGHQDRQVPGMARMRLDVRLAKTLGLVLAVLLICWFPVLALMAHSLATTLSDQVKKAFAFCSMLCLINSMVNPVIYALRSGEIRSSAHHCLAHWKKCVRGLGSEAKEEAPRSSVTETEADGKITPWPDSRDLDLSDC
Human CB1R (Cannabanoid receptor 1), sequence (P21554 whole entry): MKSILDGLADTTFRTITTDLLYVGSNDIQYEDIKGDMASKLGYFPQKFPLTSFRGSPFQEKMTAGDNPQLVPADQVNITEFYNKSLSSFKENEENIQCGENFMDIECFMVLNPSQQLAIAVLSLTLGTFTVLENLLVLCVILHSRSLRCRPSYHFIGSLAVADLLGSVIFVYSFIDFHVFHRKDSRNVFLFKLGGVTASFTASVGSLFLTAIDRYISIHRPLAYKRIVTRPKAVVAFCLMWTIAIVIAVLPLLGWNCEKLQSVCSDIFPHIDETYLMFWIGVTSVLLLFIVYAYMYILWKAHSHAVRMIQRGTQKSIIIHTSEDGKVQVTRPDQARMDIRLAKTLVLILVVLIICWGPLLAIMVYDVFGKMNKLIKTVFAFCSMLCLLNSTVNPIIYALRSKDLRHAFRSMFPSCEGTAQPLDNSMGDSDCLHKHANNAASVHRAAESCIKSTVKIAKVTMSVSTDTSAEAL

| EC50 [1] | EC50 [2] | Structure (SMILES) |
| --- | --- | --- |
| 11 nM | > 10000 nM | NC(=O)c1cccc(S(=O)(=O)N2CCC(c3c4cc(C(c5ccc(Cl)cc5)c5ccc(Cl)cc5)ccc4nn3C3CC3)CC2)c1 [Compound 140, 3-(4-(5-(bis(4-chlorophenyl)methyl)-2-cyclopropyl-2H-indazol-3-yl)piperidin-1-ylsulfonyl)benzamide] |
| 6120 nM | > 10000 nM | NC(=O)c1ccccc1C(=O)N1CCC(c2c3cc(C(c4ccc(Cl)cc4)c4ccc(Cl)cc4)ccc3nn2C2CC2)CC1 [Compound 141] |
| 1010 nM | > 10000 nM | O=C(c1nnn[nH]1)N1CCC(c2n[nH]c3ccc(C(c4ccc(Cl)cc4)c4ccc(Cl)cc4)cc23)CC1 [Compound 143] |
| 5480 nM | > 10000 nM | O=C(c1nnc[nH]1)N1CCC(c2n[nH]c3ccc(C(c4ccc(Cl)cc4)c4ccc(Cl)cc4)cc23)CC1 [Compound 144] |
| 49 nM | > 10000 nM | O=C(c1c[nH]nn1)N1CCC(c2n[nH]c3ccc(C(c4ccc(Cl)cc4)c4ccc(Cl)cc4)cc23)CC1 [Compound 145] |
| 7 nM | > 10000 nM | COc1cc(S(=O)(=O)N2CCC(c3c4cc(C(c5ccc(Cl)cc5)c5ccc(Cl)cc5)ccc4nn3C3CC3)CC2)ccc1C(N)=O [Compound 146, 4-(4-(5-(bis(4-chlorophenyl)methyl)-2-cyclopropyl-2H-indazol-3-yl)piperidin-1-ylsulfonyl)-2-methoxybenzamide] |
| 23 nM | > 10000 nM | CNC(=O)c1ccc(S(=O)(=O)N2CCC(c3c4cc(C(c5ccc(Cl)cc5)c5ccc(Cl)cc5)ccc4nn3C3CC3)CC2)cc1OC [Compound 147, 4-(4-(5-(bis(4-chlorophenyl)methyl)-2-cyclopropyl-2H-indazol-3-yl)piperidin-1-ylsulfonyl)-2-methoxy-N-methylbenzamide] |
| 7 nM | > 10000 nM | O=S(=O)(c1ccccc1O)N1CCC(c2c3cc(C(c4ccc(Cl)cc4)c4ccc(Cl)cc4)ccc3nn2C2CC2)CC1 [Compound 149, 2-(4-(5-(bis(4-chlorophenyl)methyl)-2-cyclopropyl-2H-indazol-3-yl)piperidin-1-ylsulfonyl)phenol] |
| 7 nM | > 10000 nM | COc1cccc(S(=O)(=O)N2CCC(c3c4cc(C(c5ccc(Cl)cc5)c5ccc(Cl)cc5)ccc4nn3C3CC3)CC2)c1 [Compound 150, 5-(bis(4-chlorophenyl)methyl)-2-cyclopropyl-3-(1-(3-methoxyphenylsulfonyl)piperidin-4-yl)-2H-indazole] |
| 17 nM | > 10000 nM | COc1ccc(S(=O)(=O)N2CCC(c3c4cc(C(c5ccc(Cl)cc5)c5ccc(Cl)cc5)ccc4nn3C3CC3)CC2)cc1 [Compound 152, 5-(bis(4-chlorophenyl)methyl)-2-cyclopropyl-3-(1-(4-methoxyphenylsulfonyl)piperidin-4-yl)-2H-indazole] |
| 17 nM | > 10000 nM | NC(=O)c1ccc(S(=O)(=O)N2CCC(c3c4cc(C(c5ccc(Cl)cc5)c5ccc(Cl)cc5)ccc4nn3C3CC3)CC2)cc1Cl [Compound 153, 4-(4-(5-(bis(4-chlorophenyl)methyl)-2-cyclopropyl-2H-indazol-3-yl)piperidin-1-ylsulfonyl)-2-chlorobenzamide] |
| 4 nM | > 10000 nM | CNC(=O)c1ccc(S(=O)(=O)N2CCC(c3c4cc(C(c5ccc(Cl)cc5)c5ccc(Cl)cc5)ccc4nn3C3CC3)CC2)cc1Cl [Compound 154, 4-(4-(5-(bis(4-chlorophenyl)methyl)-2-cyclopropyl-2H-indazol-3-yl)piperidin-1-ylsulfonyl)-2-chloro-N-methylbenzamide] |
| 6 nM | > 10000 nM | CNC(=O)c1ccc(S(=O)(=O)N2CCC(c3c4cc(C(c5ccc(Cl)cc5)c5ccc(Cl)cc5)ccc4nn3C3CC3)CC2)cn1 [Compound 155, 5-(4-(5-(bis(4-chlorophenyl)methyl)-2-cyclopropyl-2H-indazol-3-yl)piperidin-1-ylsulfonyl)-N-methylpicolinamide] |
| 1 nM | > 10000 nM | COc1ccccc1S(=O)(=O)N1CCC(c2c3cc(C(c4ccc(Cl)cc4)c4ccc(Cl)cc4)ccc3nn2C2CC2)CC1 [Compound 156, 5-(bis(4-chlorophenyl)methyl)-2-cyclopropyl-3-(1-(2-methoxyphenylsulfonyl)piperidin-4-yl)-2H-indazole] |
| 3 nM | > 10000 nM | COc1ccc(S(=O)(=O)N2CCC(c3c4cc(C(c5ccc(Cl)cc5)c5ccc(Cl)cc5)ccc4nn3C3CC3)CC2)cc1C(N)=O [Compound 158, 5-(4-(5-(bis(4-chlorophenyl)methyl)-2-cyclopropyl-2H-indazol-3-yl)piperidin-1-ylsulfonyl)-2-methoxybenzamide] |
| 3 nM | > 10000 nM | CNC(=O)c1cc(S(=O)(=O)N2CCC(c3c4cc(C(c5ccc(Cl)cc5)c5ccc(Cl)cc5)ccc4nn3C3CC3)CC2)ccc1OC [Compound 159, 5-(4-(5-(bis(4-chlorophenyl)methyl)-2-cyclopropyl-2H-indazol-3-yl)piperidin-1-ylsulfonyl)-2-methoxy-N-methylbenzamide] |
| 5 nM | 4400 nM | O=C(O)c1ccc(S(=O)(=O)N2CCC(c3c4cc(C(c5ccc(Cl)cc5)c5ccc(Cl)cc5)ccc4nn3C3CC3)CC2)cn1 [Compound 160, 5-(4-(5-(bis(4-chlorophenyl)methyl)-2-cyclopropyl-2H-indazol-3-yl)piperidin-1-ylsulfonyl)picolinic acid] |
| 4 nM | 950 nM | O=C(O)c1ccc(S(=O)(=O)N2CCC(c3c4cc(C(c5ccc(Cl)cc5)c5ccc(Cl)cc5)ccc4nn3C3CC3)CC2)cc1Cl [Compound 161, 4-(4-(5-(bis(4-chlorophenyl)methyl)-2-cyclopropyl-2H-indazol-3-yl)piperidin-1-ylsulfonyl)-2-chlorobenzoic acid] |
| 4 nM | 5200 nM | O=C(O)c1cc(S(=O)(=O)N2CCC(c3c4cc(C(c5ccc(Cl)cc5)c5ccc(Cl)cc5)ccc4nn3C3CC3)CC2)ccc1F [Compound 162, 5-(4-(5-(bis(4-chlorophenyl)methyl)-2-cyclopropyl-2H-indazol-3-yl)piperidin-1-ylsulfonyl)-2-fluorobenzoic acid] |
| 12 nM | > 10000 nM | NC(=O)c1cc(S(=O)(=O)N2CCC(c3c4cc(C(c5ccc(Cl)cc5)c5ccc(Cl)cc5)ccc4nn3C3CC3)CC2)ccc1F [Compound 163, 5-(4-(5-(bis(4-chlorophenyl)methyl)-2-cyclopropyl-2H-indazol-3-yl)piperidin-1-ylsulfonyl)-2-fluorobenzamide] |
| 26 nM | > 10000 nM | COc1ccc(S(=O)(=O)N2CCC(c3c4cc(C(c5ccc(Cl)cc5)c5ccc(Cl)cc5)ccc4nn3C3CC3)CC2)cc1C(=O)O [Compound 164, 5-(4-(5-(bis(4-chlorophenyl)methyl)-2-cyclopropyl-2H-indazol-3-yl)piperidin-1-ylsulfonyl)-2-methoxybenzoic acid] |
| 13 nM | > 10000 nM | NC(=O)c1ccc(S(=O)(=O)N2CCC(c3c4cc(C(c5ccc(Cl)cc5)c5ccc(Cl)cc5)ccc4nn3C3CC3)CC2)cn1 [Compound 165, 5-(4-(5-(bis(4-chlorophenyl)methyl)-2-cyclopropyl-2H-indazol-3-yl)piperidin-1-ylsulfonyl)picolinamide] |
| 2 nM | 2390 nM | O=C(O)c1ccc(S(=O)(=O)N2CCC(c3c4cc(C(c5ccc(Cl)cc5)c5ccc(Cl)cc5)ccc4nn3C3CC3)CC2)cc1F [Compound 166, 4-(4-(5-(bis(4-chlorophenyl)methyl)-2-cyclopropyl-2H-indazol-3-yl)piperidin-1-ylsulfonyl)-2-fluorobenzoic acid] |
| 12 nM | > 10000 nM | NC(=O)c1ccc(S(=O)(=O)N2CCC(c3c4cc(C(c5ccc(Cl)cc5)c5ccc(Cl)cc5)ccc4nn3C3CC3)CC2)cc1F [Compound 167, 4-(4-(5-(bis(4-chlorophenyl)methyl)-2-cyclopropyl-2H-indazol-3-yl)piperidin-1-ylsulfonyl)-2-fluorobenzamide] |
| 2 nM | 7040 nM | O=C(O)c1cc(S(=O)(=O)N2CCC(c3c4cc(C(c5ccc(Cl)cc5)c5ccc(Cl)cc5)ccc4nn3C3CC3)CC2)ccc1Cl [Compound 168, 5-(4-(5-(bis(4-chlorophenyl)methyl)-2-cyclopropyl-2H-indazol-3-yl)piperidin-1-ylsulfonyl)-2-chlorobenzoic acid] |
| 9 nM | > 10000 nM | CNC(=O)c1cc(S(=O)(=O)N2CCC(c3c4cc(C(c5ccc(Cl)cc5)c5ccc(Cl)cc5)ccc4nn3C3CC3)CC2)ccc1Cl [Compound 170, 5-(4-(5-(bis(4-chlorophenyl)methyl)-2-cyclopropyl-2H-indazol-3-yl)piperidin-1-ylsulfonyl)-2-chloro-N-methylbenzamide] |
| 3 nM | > 10000 nM | O=C(O)c1ccc(S(=O)(=O)N2CCC(c3c4cc(C(c5ccc(Cl)cc5)c5ccc(Cl)cc5)ccc4nn3C3CC3)CC2)o1 [Compound 171, 5-(4-(5-(bis(4-chlorophenyl)methyl)-2-cyclopropyl-2H-indazol-3-yl)piperidin-1-ylsulfonyl)furan-2-carboxylic acid] |
| 3 nM | > 10000 nM | NC(=O)c1ccc(S(=O)(=O)N2CCC(c3c4cc(C(c5ccc(Cl)cc5)c5ccc(Cl)cc5)ccc4nn3C3CC3)CC2)o1 [Compound 172, 5-(4-(5-(bis(4-chlorophenyl)methyl)-2-cyclopropyl-2H-indazol-3-yl)piperidin-1-ylsulfonyl)furan-2-carboxamide] |

| Structure (SMILES) | EC50 [1] | EC50 [2] |
| --- | --- | --- |
| O=S(=O)(N1CCC(c2n[nH]c3ccc(C(c4ccc(Cl)cc4)c4ccc(Cl)cc4)cc23)CC1)C(F)(F)F [Compound 173] | 7 nM | 5780 nM |
